Earlier results on one compound are cited in US20170128362A1, “APPLICATION OF LARGE-DOSE GLYCERINUM IN FREEZE-THAWING TOLERABLE LIPID EMULSION” (Shengyang Pharmaceutical University, priority 2014, published 2017).

For the series the following is noted: 0.005% sodium oleate.

Consider `CCCCCCCC/C=C\CCCCCCCC(=O)[O-].[Na+]` [sodium oleate], for which the hemolysis was 100%.
